Experimental data reported in US20250304600A1, “PHARMACEUTICAL COMPOUNDS AND COMPOSITIONS AS c-KIT KINASE INHIBITORS” (Enanta Pharmaceuticals, Inc., priority 2023, published 2025).

Columns and labels:
[1] = biological target: T1, Recombinant human c-KIT kinase (Homo sapiens, UniProt P10721); assay: c-KIT kinase chemiluminescence assay (ADP-Glo); format: biochemical; settings: ATP 50 μM
T1 construct: purchased Promega V4498
Procedure: The c-KIT Kinase Enzyme System (V4498) and ADP-Glo™ Kinase Assay kit (V6930) were purchased from Promega (Madison, WI). DMSO (D2650) was purchased from Sigma-Aldrich (Burlington, MA).
c-KIT Kinase Chemiluminescence Assay:
Kinase Reaction: The kinase assay was based on the recommended protocol by c-KIT Kinase Enzyme System from Promega. Recombinant human c-KIT kinase in 3 μL of assay buffer (40 mM Tris pH 7.5, 20 mM MgCl2, 0.1 mg/mL BSA and 50 μM DTT) was added to the test or high control wells and 3 μL of assay buffer was added to the low control wells. The microplate was centrifuged at 800 rotations per minute (rpm) for 60 s and incubated at room temperature (RT) for 30 min. Next, 2 μL of buffered ATP and polyEY substrate solution was added to all wells. The microplate was centrifuged at 800 rpm for 60 s and incubated at RT for 2 h.
ADP detection with ADP-Glo™ Kinase Assay: After the kinase reaction incubation, 5 μL of ADP-Glo™ reagent was added to all wells. The microplate was centrifuged at 800 rpm for 60 s and incubated at RT for 40 min. Ten microliter (10 μL) of Kinase Detection Reagent (Luciferin-Luciferase system) was then added to all wells. The microplate was centrifuged at 800 rpm for 60 s and incubated at RT for 60 min. Kinase activity was measured as an increase in luminescence at RT in an Envision plate reader equipped with 560 nm filters and operating in endpoint mode.
Data Analysis: Endpoint chemiluminescence from high and low control wells were used to calculate normalized c-KIT activity at various concentrations of test compounds. The normalized activities were fitted to inhibitor-versus-normalized response fit in GraphPad Prism 7 to determine half-maximal inhibitory concentration (IC50) and hill coefficient values (H).
Where I is the inhibitor concentration and H is the Hill coefficient.

[2] = test system: M-07e cells which endogenously express human c-KIT; assay: M-07e cellular assay: SCF-mediated cell proliferation (CellTiter Glo); format: cell-based; settings: 72 h, SCF-mediated proliferation of M-07e cells
Procedure: M-07e cells (Creative Bioarray, CSC-C0249) which endogenously express human c-KIT were used to evaluate the effect of compounds on stem cell factor (SCF)-mediated cell proliferation. M-07e cells were cultured in growth media (RPMI+10% FBS+1% penicillin/streptomycin+10 ng/mL GM-CSF) at 5E5-1.5E6 cells/mL, replenishing media every 3-4 days. 1.5E4 cells were seeded per well in 384 well tissue culture treated plates in […] assay media (RPMI+10% FBS+1% penicillin/streptomycin) without growth factor stimulation and incubated at 37° C. in a CO2 humidity-controlled incubator. Twenty-four hours later, three-fold serially diluted test compounds in media containing SCF (at the previously determined EC90) were added to the plated M-07e cells and incubated for an additional 72 hours. Cell viability was determined by adding 25 μL CellTiter Glo (Promega) to the cells and the luminescence was measured using a Perkin Elmer Envision plate reader. The EC50 was determined using GraphPad Prism. Percent cell growth was determined after normalizing the curve to the mean RLU high control (no compound control wells) at 100% and the mean RLU low control (no SCF control wells) at 0%.

T1 sequence (P10721 544-976 limits assumed): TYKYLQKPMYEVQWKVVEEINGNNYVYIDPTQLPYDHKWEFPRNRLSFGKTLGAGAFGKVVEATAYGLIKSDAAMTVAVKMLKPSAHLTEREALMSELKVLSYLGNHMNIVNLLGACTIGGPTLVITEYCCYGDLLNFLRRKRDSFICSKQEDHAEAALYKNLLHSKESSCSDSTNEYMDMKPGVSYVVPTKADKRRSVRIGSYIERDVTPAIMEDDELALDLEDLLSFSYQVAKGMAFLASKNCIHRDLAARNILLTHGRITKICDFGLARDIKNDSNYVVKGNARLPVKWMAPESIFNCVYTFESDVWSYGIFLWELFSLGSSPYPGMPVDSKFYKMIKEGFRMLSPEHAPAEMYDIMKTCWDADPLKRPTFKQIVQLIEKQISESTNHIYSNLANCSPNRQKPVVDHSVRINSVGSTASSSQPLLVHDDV

## Cc1ccc(-c2noc([C@H]3C[C@@H]3F)n2)cc1NC(=O)c1cnc2cccnn12 [Example 16]
[1]
  IC50: > 1000 nM

## Cc1ccc(-c2noc([C@H]3C[C@@H]3F)n2)cc1NC(=O)c1cnc(-c2ccc3nn(CC(C)(C)O)c(C)c3c2)o1 [Example 21a]
[2]
  EC50: < 100 nM
[1]
  IC50: < 100 nM

## Cc1ncc(-c2noc([C@H]3C[C@@H]3F)n2)cc1NC(=O)c1cnc(-c2ccc3c(c2)c(C)nn3CC(C)(C)O)o1 [Example 22a]
[2]
  EC50: < 100 nM
[1]
  IC50: 100 to 1000 nM

## Cc1ncc(-c2noc([C@H]3C[C@@H]3F)n2)cc1NC(=O)c1cnc(-c2ccc3nn(CC(C)(C)O)c(C)c3c2)o1 [Example 23a]
[2]
  EC50: 100 to 1000 nM
[1]
  IC50: 100 to 1000 nM

## Cc1ccc(-c2noc([C@H]3C[C@@H]3F)n2)cc1NC(=O)c1cnc(N2CC(C(=O)O)C2)s1 [Example 98-4]
[2]
  EC50: > 1000 nM

## Cc1ccc(-c2noc([C@H]3C[C@@H]3F)n2)cc1NC(=O)c1cnc2n1Cc1ccccc1-2 [Example 99]
[1]
  IC50: < 100 nM

## C#Cc1ccc2c(C(=O)Nc3cc(-c4noc([C@H]5C[C@@H]5F)n4)ccc3C)cnn2c1 [Example 106]
[2]
  EC50: < 100 nM

## Cc1ccc(-c2noc([C@H]3C[C@@H]3F)n2)cc1NC(=O)c1cnn2cc(-c3cn(C(F)F)nn3)ccc12 [Example 107]
[2]
  EC50: < 100 nM

## COCCn1nc(C)c(-c2ccc3c(C(=O)Nc4cc(-c5noc([C@H]6C[C@@H]6F)n5)ccc4C)cnn3c2)c1C [Example 147]
[2]
  EC50: < 100 nM
[1]
  IC50: < 100 nM

## Cc1ncc(-c2ccn3ncc(C(=O)Nc4cc(-c5noc([C@H]6C[C@@H]6F)n5)ccc4C)c3c2)c(C)n1 [Example 168]
[1]
  IC50: < 100 nM

## Cc1ccc(-c2noc([C@H]3C[C@@H](OC(F)F)C3)n2)cc1NC(=O)c1cnn2ccc(N3CC4(COC4)C3)cc12 [Example 242]
[2]
  EC50: < 100 nM

## Cc1ncc(-c2noc(C3CC(OC(F)F)C3)n2)cc1NC(=O)c1cnn2ccc(N3CC4(C3)CC(O)(C(F)(F)F)C4)cc12 (stereo not drawn) [Example 281-40]
[2]
  EC50: < 100 nM
[1]
  IC50: 100 to 1000 nM

## Cc1ncc(-c2noc(C3CC(OC(F)F)C3)n2)cc1NC(=O)c1cnn2ccc(N3CC4(C3)CC(O)(C(F)F)C4)cc12 (stereo not drawn) [Example 281-44]
[2]
  EC50: < 100 nM
[1]
  IC50: < 100 nM

## Cc1cc(F)c(-c2noc(C3CC(OC(F)F)C3)n2)cc1NC(=O)c1cnn2ccc(N3CC4(COC4)C3)cc12 (stereo not drawn) [Example 281-58]
[2]
  EC50: 100 to 1000 nM
[1]
  IC50: 100 to 1000 nM

## Cc1ccc(-c2noc([C@H]3C[C@@H]3F)n2)cc1NC(=O)c1cnc(-c2cnc(N)nc2)o1 [Example 308-64]
[1]
  IC50: > 1000 nM

## Cc1ccc(-c2nc([C@H]3C[C@@H]3F)cs2)cc1NC(=O)c1cnn2ccc(N3CC4(COC4)C3)cc12 [Example 309]
[1]
  IC50: < 100 nM

## Cc1ncc(-c2ncc(OC(F)(F)F)cn2)cc1NC(=O)c1cnn2ccc(N3CC4(C3)CC(O)(C(F)F)C4)cc12 [Example 313]
[2]
  EC50: < 100 nM
[1]
  IC50: 100 to 1000 nM

## Cc1ncc(-c2ncc(OC(F)(F)F)cn2)cc1NC(=O)c1cnn2ccc(-c3c(C)nc(N)nc3C)cc12 [Example 364]
[1]
  IC50: > 1000 nM

## Cc1nc(N)nc(C)c1-c1ccn2ncc(C(=O)Nc3cc(-c4noc([C@H]5C[C@@H](OC(F)(F)F)C5)n4)sc3C)c2c1 [Example 368]
[1]
  IC50: > 1000 nM

## Cc1nc(N)nc(C)c1-c1ccn2ncc(C(=O)Nc3cc(-c4noc(C5CN(C(=O)OC(C)(C)C)C5)n4)sc3C)c2c1 [Example 369]
[1]
  IC50: > 1000 nM

## Cc1nc(N)nc(C)c1-c1ccn2ncc(C(=O)Nc3cc(-c4noc([C@H]5C[C@@H]5F)n4)sc3C)c2c1 [Example 370]
[1]
  IC50: > 1000 nM

## Cc1nc(N)nc(C)c1-c1ccn2ncc(C(=O)Nc3cc(-c4noc(C5CN(C(=O)[C@H]6C[C@@H]6F)C5)n4)sc3C)c2c1 [Example 371]
[1]
  IC50: > 1000 nM

## Cc1nn(-c2ccc(C3CC3)cc2)cc1NC(=O)c1cnn2ccc(N3CC4(COC4)C3)cc12 [Example 372]
[1]
  IC50: > 1000 nM

## Cc1ncc(-c2nnn(C[C@H](O)C(F)F)n2)cc1NC(=O)c1cnn2ccc(N3CC4(C3)CC(O)(C(F)F)C4)cc12 [Example 378]
[2]
  EC50: 100 to 1000 nM
[1]
  IC50: 100 to 1000 nM

## Cc1ncc(-c2nnn(C[C@@H](O)C(F)F)n2)cc1NC(=O)c1cnn2ccc(N3CC4(C3)CC(O)(C(F)F)C4)cc12 [Example 379]
[2]
  EC50: 100 to 1000 nM
[1]
  IC50: 100 to 1000 nM

## Cc1ncc(-c2nnn(C[C@H](O)C(F)(F)F)n2)cc1NC(=O)c1cnn2ccc(N3CC4(C3)CC(O)(C(F)F)C4)cc12 [Example 380]
[2]
  EC50: 100 to 1000 nM
[1]
  IC50: 100 to 1000 nM

## Cc1ncc(-c2nnn(C[C@@H](O)C(F)(F)F)n2)cc1NC(=O)c1cnn2ccc(N3CC4(C3)CC(O)(C(F)F)C4)cc12 [Example 381]
[2]
  EC50: 100 to 1000 nM
[1]
  IC50: 100 to 1000 nM

## CCn1nnc(-c2cnc(C)c(NC(=O)c3cnn4ccc(N5CC6(C5)CC(O)(C(F)F)C6)cc34)c2)n1 [Example 382]
[2]
  EC50: < 100 nM
[1]
  IC50: 100 to 1000 nM

## Cc1ncc(-c2nnn(CC(C)(C)C#N)n2)cc1NC(=O)c1cnn2ccc(N3CC4(C3)CC(O)(C(F)F)C4)cc12 [Example 383]
[2]
  EC50: 100 to 1000 nM
[1]
  IC50: 100 to 1000 nM

## Cc1ncc(-c2nnn(CCC(F)(F)F)n2)cc1NC(=O)c1cnn2ccc(N3CC4(C3)CC(O)(C(F)F)C4)cc12 [Example 384]
[2]
  EC50: < 100 nM
[1]
  IC50: 100 to 1000 nM

## Cc1ncc(-c2nnn(C3CCC(F)(F)CC3)n2)cc1NC(=O)c1cnn2ccc(N3CC4(C3)CC(O)(C(F)F)C4)cc12 [Example 385]
[2]
  EC50: < 100 nM
[1]
  IC50: < 100 nM

## COCCn1nnc(-c2cnc(C)c(NC(=O)c3cnn4ccc(N5CC6(C5)CC(O)(C(F)F)C6)cc34)c2)n1 [Example 386]
[2]
  EC50: 100 to 1000 nM
[1]
  IC50: 100 to 1000 nM

## Cc1ncc(-c2nnn(CCO)n2)cc1NC(=O)c1cnn2ccc(N3CC4(C3)CC(O)(C(F)F)C4)cc12 [Example 387]
[2]
  EC50: > 1000 nM
[1]
  IC50: > 1000 nM

## COC(=O)N1CC(c2nc(-c3cc(NC(=O)c4cnn5ccc(N6CC7(C6)CC(O)(C(F)F)C7)cc45)c(C)s3)no2)C1 [Example 388]
[2]
  EC50: < 100 nM
[1]
  IC50: < 100 nM

## Cc1ncc(-c2noc(N3CC(O)(C(F)(F)F)C3)n2)cc1NC(=O)c1cnn2ccc(N3CC4(C3)CC(O)(C(F)F)C4)cc12 [Example 389]
[2]
  EC50: > 1000 nM
[1]
  IC50: > 1000 nM

## Cc1ccc(-c2noc([C@H]3C[C@@H]3C(F)F)n2)cc1NC(=O)c1cnn2ccc(-c3c(C)nc(N)nc3C)cc12 [Example 390]
[2]
  EC50: 100 to 1000 nM
[1]
  IC50: 100 to 1000 nM

## Cc1ncc(-c2noc([C@H]3C[C@@H]3C(F)F)n2)cc1NC(=O)c1cnn2ccc(-c3c(C)nc(N)nc3C)cc12 [Example 391]
[2]
  EC50: > 1000 nM
[1]
  IC50: > 1000 nM

## O=C(Nc1cc(-c2ncc(C3CC3)cn2)ccc1C(F)F)c1cnn2ccc(Br)cc12 [Example 392]
[2]
  EC50: > 1000 nM
[1]
  IC50: > 1000 nM

## O=C(Nc1cc(-c2ncc(C3CC3)cn2)ccc1C(F)F)c1cnn2ccc(N3CC4(C3)CC(O)(C(F)F)C4)cc12 [Example 393]
[2]
  EC50: < 100 nM
[1]
  IC50: 100 to 1000 nM

## Cc1ncc(-c2nnn[nH]2)cc1NC(=O)c1cnn2ccc(N3CC4(C3)CC(O)(C(F)F)C4)cc12 [Example 394]
[2]
  EC50: > 1000 nM
[1]
  IC50: > 1000 nM

## Cc1ccc(-c2noc(C3C[C@@H]3F)n2)cc1NC(=O)c1ccc(NC(=O)OC(C)(C)C)nc1 (stereo partly drawn) [Example 396]
[2]
  EC50: > 1000 nM
[1]
  IC50: > 1000 nM

## Cc1ccc(-c2noc([C@H]3C[C@@H]3F)n2)cc1NC(=O)c1ccc(N)nc1 [Example 397]
[2]
  EC50: > 1000 nM
[1]
  IC50: > 1000 nM

## Cc1ccc(-c2noc(C3C[C@@H]3C(F)F)n2)cc1NC(=O)c1ccc(NC(=O)OC(C)(C)C)nc1 (stereo partly drawn) [Example 398]
[2]
  EC50: > 1000 nM
[1]
  IC50: > 1000 nM

## Cc1ncc(-c2noc(C3C[C@@H]3C(F)F)n2)cc1NC(=O)c1ccc(NC(=O)OC(C)(C)C)nc1 (stereo partly drawn) [Example 399]
[2]
  EC50: > 1000 nM
[1]
  IC50: > 1000 nM

## Cc1ccc(-c2noc(C3C[C@@H]3C(F)F)n2)cc1NC(=O)c1ccc(N)nc1 (stereo partly drawn) [Example 400]
[2]
  EC50: > 1000 nM
[1]
  IC50: > 1000 nM

## Cc1ncc(-c2noc([C@H]3C[C@@H]3C(F)F)n2)cc1NC(=O)c1ccc(N)nc1 [Example 401]
[2]
  EC50: 100 to 1000 nM
[1]
  IC50: > 1000 nM

## O=C(Nc1cn(-c2ccc(C3CC3)cc2)nc1C(F)F)c1cnn2ccc(N3CC4(COC4)C3)cc12 [compound 373]
[2]
  EC50: > 1000 nM
